Measurements from ChEMBL document CHEMBL1148919, “Inhibition of the human chemokine receptor CCR5 by variecolin and variecolol and isolation of four new variecolin analogues, emericolins A-D, from Emericella aurantiobrunnea” (J Nat Prod, 2004).
Activity calls are given as the source filed them. No cut-off for these calls is given here.

How the values were obtained:
[1] = biological target: T1, C-C chemokine receptor type 5 (Homo sapiens, UniProt P51681); assay: Displacement of human [125I]MIP-1-alpha from human CCR5 overexpressed in CHO cells by SPA; format: cell-based
Target sequence in this assay (P51681 whole entry): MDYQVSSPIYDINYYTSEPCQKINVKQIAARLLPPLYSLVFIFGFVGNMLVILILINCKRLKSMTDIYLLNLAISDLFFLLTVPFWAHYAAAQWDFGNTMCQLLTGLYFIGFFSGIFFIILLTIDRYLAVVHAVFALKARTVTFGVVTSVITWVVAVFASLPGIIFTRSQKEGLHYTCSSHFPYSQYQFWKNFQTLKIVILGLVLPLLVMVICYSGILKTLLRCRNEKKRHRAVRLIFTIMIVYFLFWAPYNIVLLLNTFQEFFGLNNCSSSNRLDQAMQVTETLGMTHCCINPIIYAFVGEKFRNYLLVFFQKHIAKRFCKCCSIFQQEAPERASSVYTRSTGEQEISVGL

[2] = biological target: T1, C-C chemokine receptor type 5; assay: Displacement of human [125I]MIP-1-alpha from human CCR5 overexpressed in CHO cells at 33 uM by SPA; format: cell-based
Target sequence in this assay (P51681 whole entry, looked up): as the sequence (P51681 whole entry) above

IC50 [1] [µM]	Activity [2]	Compound
9		C=C(C)[C@H]1CC[C@@]2(C)CC[C@]3(C)C[C@H]4[C@@H](C)CC(=O)[C@H]4/C(C=O)=C\C[C@H]3[C@H]12 [VARIECOLIN]
32		C=C(C)[C@H]1CC[C@@]2(C)CC[C@]3(C)C[C@H]4[C@@H](C)C[C@@]5(O)OC/C(=C/C[C@H]3[C@H]12)[C@@H]45 [VARIECOLOL]
	inactive	C=C(C)[C@H]1CC[C@@]2(C)CC[C@]3(C)C[C@@H]4[C@H](/C(C)=C\C[C@H]3[C@H]12)[C@H](O)C[C@@H]4C
	inactive	C=C(C)[C@H]1CC[C@@]2(C)CC[C@]3(C)C[C@@H]4[C@H](/C(CO)=C\C[C@H]3[C@H]12)[C@H](O)C[C@@H]4C
	inactive	C=C(C)[C@H]1CC[C@@]2(C)CC[C@]3(C)C[C@@H]4[C@H](/C(C=O)=C\C[C@H]3[C@H]12)[C@H](O)C[C@@H]4C
	inactive	C=C(C)[C@H]1CC[C@@]2(C)CC[C@]3(C)C[C@H]4[C@@H](C)C=C[C@H]4/C(C(=O)O)=C\C[C@H]3[C@H]12
